Reference: patent US10434097B1, “Methods and compositions for treating hearing disorders” (GATEWAY BIOTECHNOLOGY, INC., priority 2015, dated 2019)

Legend:
CBA/CaJ mice [1] = assay: NIHL, white noise 110 dB SPL 30 min, ABR TTS, repeated TET (Example 6); assay type: in vivo; conditions: 120 mg/kg two days before and three days after noise
Excerpt: The average TTS across all test frequencies was 69.7 dB for the control group, 62.9 dB for the TET-treated group (about 6.8 dB of protection).

CBA/CaJ mice [2] = assay: Early noise-induced accelerated ARHL model, ABR thresholds (Example 2); assay type: in vivo; conditions: three months after noise exposure (4-25 kHz, 110 dB SPL, 30 min); TET three days before and two days after exposure
Method: Currently, no FDA-approved medications against ARHL are available. Two-month old CBA/CaJ mice were exposed to octave band (4-25 kHz) noise at 110 dB SPL for 30 minutes. This is a well-established noise model for our drug screenings since the noise exposure leads to dramatic acute and permanent hearing threshold shifts 24 hours and two weeks post-exposure respectively. In addition, apparently accelerated age-related increase in the auditory brainstem response (ABR) thresholds were observed three months after the noise exposure in the control group (n=6), up to approximately 50 dB at 40 kHz. Mice treated with TET (n=5) three days before and two days after the noise exposure had only about an increase of 10 dB at 40 kHz three months after exposure (FIG. 2). […] Thus, TET treatment at a young age could prevent accelerated age-related hearing loss due to early noise exposure.

CBA/CaJ mice [3] = assay: Accelerating rotarod, chronic TET use (Example 1); assay type: in vivo; conditions: 120 mg/kg i.p. for five days, two-month old mice, two-way ANOVA p>0.05
Method: CBA/CaJ mice were purchased from The Jackson Laboratory. One to five mice were housed per cage with food and water available in a noise-controlled environment on a 12-hr light/dark cycle with light onset at 6:00 a.m. TET was obtained from Sigma Chemical Co. (St. Louis, Mo.). The drug solution was injected (i.p.) for the treated groups. Control mice were given saline injection only. The amount of water/food intake was monitored daily and body weight was monitored weekly. Drug neurotoxic effects on sensory motor coordination were assessed on two-month old CBA/CaJ mice using the accelerating rotarod method. Mice were trained on the task for 5 days in order to achieve stable performance before either being treated by intraperitoneal (i.p.) injections with TET at 120 mg/kg body weight (n=5) or saline (n=6).

CBA/CaJ mice [4] = assay: Prepulse inhibition (PPI), sensory gating (Example 4); assay type: in vivo
Method: TET effects on sensory gating were evaluated using a prepulse inhibition (PPI) procedure. Mice were placed in a plastic restrainer situated on a plate with a pressure sensor. Any animal motion was detected by the sensor which measured its amplitude. TET at various dosages was injected (i. p.) 1 h before the test. For this study, CBA/CaJ mice were divided into four groups: control with saline injection only (n=6; 2 males), TET at 30 mg/kg (n=6; 3 males), 60 mg/kg (n=10; 5 males) and 120 mg/kg (n=6; 2 males). For all groups, the ratio between the PPI and startle amplitude was measured (FIG. 4). […] Thus, TET at 120 mg/kg has no toxic effects on sensory gating in the CBA/CaJ mouse.

mice [5] = assay: Salicylate-induced tinnitus model, SBAD Go/No-Go (Example 12); assay type: in vivo; conditions: before or after drug injections, at these dosages
Excerpt: The SBAD method with Go/No-Go paradigm was used for behavioral test in mice. For “Go” trial animals were trained to move from one compartment to another upon presentation of a sound. For “No-Go” trial animals were trained to stay in the compartment. Otherwise they received a shock. “Go” paradigm was used to monitor motor, motivation, and memory functions while “No-Go” was used to detect tinnitus-like behavior. A baseline was established for each mouse over three consecutive days. The same SBAD method was repeated one hour after intraperitoneal injections of sodium salicylate (400 mg/kg), and two hours after TET injections.

CBA/CaJ mice [6] = assay: Accelerating rotarod test, motor coordination after single injection (Example 3); assay type: in vivo; conditions: 1 and 3 h after injection
Method: FIG. 3 illustrates the effects of TET on mouse rotarod performance test. CBA/CaJ mice were tested before TET treatment (baseline) and one and three hours (1 h, 3 h) after TET treatment (i.p.). The latency to fall were shown as mean+/−S.E.M.
TET effects on motor coordination were evaluated on the accelerating rotarod test. the rotating speed was increased with an acceleration rate of 10 rpm/min. The length of time that each animal was able to stay on the rod was recorded as the latency to fall. TET was dissolved in 0.1 N HCl at a concentration of 50 mg/ml, and the pH was adjusted to 6.8-7.0 before diluted in saline. Mice were injected intraperitoneally (i.p.) with saline (baseline) or different TET dosages. Rotarod performance was evaluated at 1 and 3 h after injection (FIG. 3). […] No significant gender effect was detected at either time point (p>0.1).

mice [7] = assay: Noise-induced tinnitus model, SBAD Go/No-Go (Example 12); assay type: in vivo
Excerpt: The SBAD method with Go/No-Go paradigm was used for behavioral test in mice. For “Go” trial animals were trained to move from one compartment to another upon presentation of a sound. For “No-Go” trial animals were trained to stay in the compartment. Otherwise they received a shock. “Go” paradigm was used to monitor motor, motivation, and memory functions while “No-Go” was used to detect tinnitus-like behavior. One ear was exposed to a 120 dB noise (4-25 kHz) for two hours for this noise-induced tinnitus model. DPOAE and ABR were measured to monitor possible hearing loss in each ear 2 weeks after noise exposure. SBAD measurements were made 2, 4, and 8 weeks after noise exposure, and also after TET (0, 30, 60, 90 mg/kg) injection.

[8] = higher dosages; abdominal distension, diarrhea, dry eye, itching, hyperpigmentation, mildly elevated liver enzymes; resolve after discontinuance; cited from earlier work
C57BL/6J mice = assay: Rodent avoidance (shuttle box) test, memory (Example 5); assay type: in vivo
Method: FIG. 5 illustrates the effects of TET on mouse avoidance test. C57BL/6J mice were trained to move in the shuttle box when a sound was present. After 10 days of training, the latency of their avoidance test was recored and compared between the control (0) and drug-treated groups. Data are shown as means+/−S.E.M.
TET effects on memory were evaluated in mice with a rodent avoidance system, which consisted of two compartments of equal size (12.5 cm×20 cm×20 cm) that were connected by a door. Infrared LEDs were used to monitor rodent movement in each compartment. Sound cues were delivered via piezo tweeters in the ceiling of the compartments. Animals were trained to move from one compartment to the other upon presentation of the sound. […] The trials and responses were collected. Behavioral responses of mice with or without TET injection were measured after injection (FIG. 5). […] Again, one time administration of TET at 120 mg/kg had no significant toxic effects on memory in mice.

[9] = rats, cited from earlier work
[10] = single oral administration 50 mg/kg

## COc1ccc2cc1Oc1ccc(cc1)C[C@H]1c3cc(c(OC)cc3CCN1C)Oc1c(OC)c(OC)cc3c1[C@H](C2)N(C)CC3 [TET, tetrandrine]
CBA/CaJ mice [1]
  protection (TTS difference to control): about 6.8 dB
CBA/CaJ mice [1]; 24 hours after exposure, four month-old mice (control 69.7 dB)
  average TTS across all test frequencies: 62.9 dB
CBA/CaJ mice [2]
  increase of ABR threshold at 40 kHz: ~10 dB
CBA/CaJ mice [3]
  rotarod latency to fall vs control: not significantly different
CBA/CaJ mice [4]; 30 mg/kg i.p. 1 h before test
  ratio between PPI and startle amplitude, pre- vs post-treatment: No significant differences
CBA/CaJ mice [4]; 60 mg/kg i.p. 1 h before test
  ratio between PPI and startle amplitude, pre- vs post-treatment: No significant differences
CBA/CaJ mice [4]; 120 mg/kg i.p. 1 h before test
  ratio between PPI and startle amplitude, pre- vs post-treatment: No significant differences
Mice [5]
  "Go" testing (motor, motivation, memory functions): No significant changes
CBA/CaJ mice [6]; 60 mg/kg i.p.
  rotarod performance (latency to fall) vs baseline: no significant side effects
CBA/CaJ mice [6]; 120 mg/kg i.p.
  rotarod performance (latency to fall) vs baseline: no significant side effects
Mice [7]
  "Go" trials (motor, motivation, memory functions): No significant changes
[8]
  side effects in patients: limited side effects
C57BL/6J mice; 60 mg/kg
  avoidance test latency to cross vs control: No significant difference
C57BL/6J mice; 120 mg/kg
  avoidance test latency to cross vs control: No significant difference
C57BL/6J mice; 180 mg/kg, one-tailed t-test p<0.05
  avoidance test latency to cross vs control: significant increase
[9]; between 12.5 to 25 mg/kg
  drug elimination from plasma: consistent with linear kinetics
[9]; [10]
  area under the curve (AUC): 6279.2 ± 2411.5 ng·h/mL
  half time (T½): 20.6 ± 3.7 h
[9]
  drug concentration-curve model: fits well with a two-compartment open model
